Experimental findings from patent US10961202B2, “Bis-benzimidazole compounds and methods of using the same” (THE SCRIPPS RESEARCH INSTITUTE, priority 2017, dated 2021) are described below.

In assay [1] the test system is HSALR strain 20b mice. As to the kind of experiment: DM1 mouse efficacy study: RT-PCR of MBNL1-dependent splicing targets in gastrocnemius. The settings on record: sc, 7.5 mg/kg qod 5 doses, subcutaneous. The assay is classed as in vivo.
Assay [2] has as its system MBNL1 exon 5 inclusion in DM1 myotubes. Kind of assay: Myotube splicing rescue assay (MBNL1 exon 5 inclusion). The assay is classed as cell-based, human. The settings on record: 48-hour incubation.
A further assay deals with r(CUG)12-MBNL1 complex. Kind of assay: Inhibition of the r(CUG)12-MBNL1 complex measured by TR-FRET. The settings on record: Table M; 80 nM RNA, 60 nM MBNL1-His6. The class given is biochemical. For orientation: Time-resolved FRET reads energy transfer from a long-lived donor to a nearby acceptor.
Assay [3] concerns HSALR strain 20b mice. As to the kind of experiment: DM1 mouse efficacy study: RT-PCR of MBNL1-dependent splicing targets in gastrocnemius. The class given is in vivo. The note with it: sc, 3 mg/kg qod 5 doses, subcutaneous. The source says: HSALR strain 20b mice were used as a model for myotonic dystrophy type I (DM1) experimental studies when testing the efficacy of candidate compounds. To determine the genotype of the mice, the transgene of human skeletal actin (HSA) genomic level was compared to endogenous mouse skeletal actin (MSA) by PCR. Mice with an HSA:MSA ratio of 2:1, homozygous mice were used for the study. Disease phenotype was confirmed in homozygous HSALR by assessing myotonia by pinching the quadriceps of the mouse. […] Homozygous HSALR that have been confirmed by PCR genotyping HSA:MSA ratio and are positive for pinch myotonia were selected for candidate compound efficacy studies for DM1.
For each study, a control group of PBS injected mice was included along with mice test groups injected with the compound to be tested. For a statistical power >80%, five mice were used per group (three females and two males). As previously indicated, homozygous HSALR mice were selected aged 8-12 weeks at the beginning of the study. Littermate mice were evenly distributed across groups in the study. Each cage contained mice from a single group. Female mice from different litters were combined into one cage for a single test group. Male mice cannot be combined in cages with non-littermate mice. If any fighting occurred in cages with multiple mice, the mice with minor/superficial fight wounds were be separated and monitored. Mice with severe fight wounds were removed from the study. Mice were monitored throughout the study for weight changes over time, behavioral changes at time of injection, and any other potential health concerns that arose during the study.
Mice were injected with approximately ˜200 μL solution subcutaneously by 28-gauge syringe. The volume administered was determined by the weight of the mouse where 10 iaL solution is administered per 1 g of the weight of the mouse. The compound was solubilized in DPBS at a concentration of […], which equated to a dose of 0.1-3.0 mg compound per kg weight of the animal (mpk). Mice were weighed once a week, and the volume of administered compound solution (or DPBS) was adjusted accordingly for correct mpk dosing. Once a compound was tested for acute toxicity in FVB wildtype mice, the compound was typically first tested at 3 mpk, injected every other day (q.o.d.) for five doses, and the mice sacrificed 24 hr after the last injection. Candidate compounds were further tested at different dose regimes to further assess the compound's efficacy in DM1 mice.
For each mouse, blood, brain, heart, liver, kidney, tibialis anterior, gastrocnemius, and quadriceps were dissected and collected. After the mouse was euthanized, blood was collected by cardiac puncture and placed in lithium heparin tubes on ice. Plasma was separated by centrifugation and collected. Brain, heart, half of the liver, tibialis anterior, gastrocnemius, and quadriceps were flash frozen in liquid nitrogen. Half of the liver, kidneys, and subset of heart samples were fixed in 10% formalin. One of the two tibialis anterior muscles was frozen with OCT for cyro-sectioning.
Gastrocnemius muscle was used for downstream RNA extraction RT-PCR. […] Half of one gastrocnemius was used for an RNA extraction. The gastrocnemius was homogenized in Trizol reagent and extracted following the protocol of the Zymo Direct-zol RNA Mini Prep Plus kit.
For each RNA sample, 500 ng of RNA was used for a reverse transcription reaction to produce single-stranded cDNA. MBNL1-dependent splicing targets (Clcn1 exon 7a, Mbnl1 exon 5, Sercal exon 22, and Zasp exon 11) and MBNL1-independent splicing targets (Capzb exon 8, Itgb1 exon 17) were assessed by RT-PCR. For the alternative exons listed, forward and reverse primers were designed to amplify the alternative exon along with the flanking constitutive exons such that one primer may produce two PCR products: one PCR product including the alternative exon and one PCR product excluding the alternative exon. […]

The mark [4] stands for this setting: read-out: Clcn1 exon 7a splicing rescue %.
Where [5] appears, read: read-out: Mbnl1 exon 5 splicing rescue %.
The mark [6] stands for this setting: read-out: Serca1 exon 22 splicing rescue %.
The mark [7] stands for this setting: read-out: Zasp exon 11 splicing rescue %.

Where two headings read alike, the source gives them in different places.

`CN1CCC(COc2ccc3nc(-c4ccc(-c5nc6ccc(OCC7CCN(C)CC7)cc6[nH]5)cc4)[nH]c3c2)CC1` [Compound 198, 1,4-bis(6-((1-methylpiperidin-4-yl)methoxy)-1H-benzo[d]imidazol-2-yl)benzene]: the percent splicing rescue at 7.5 mg/kg with HSALR strain 20b mice [1] (setting [4]) was determined as 90.4%; with HSALR strain 20b mice [1] (setting [5]), 94.5%; with HSALR strain 20b mice [1] (setting [6]), 61.2%; in the assay on HSALR strain 20b mice [1] (setting [7]), 91.5%. Further, in assay [2], the “MBNL1 % splicing rescue at 10 μM” value turned out to be 109.8%. For the same molecule, it took 9.67 µM to reach half-maximal inhibition in the assay on r(CUG)12-MBNL1 complex (IC50). Moreover, the percent splicing rescue at 3 mg/kg in the assay with HSALR strain 20b mice [3] (setting [4]) worked out at 55.1%; in the assay with HSALR strain 20b mice [3] (setting [5]) it was 49.7%; in the assay on HSALR strain 20b mice [3] (setting [6]), 22.3%; with HSALR strain 20b mice [3] (setting [7]) it was 35%.

Consider `CN(C)CCCOc1ccc2nc(-c3ccc(-c4nc5ccc(OCCCN(C)C)cc5[nH]4)c(F)c3)[nH]c2c1` [Compound 286, (3-[[2-(4-[6-[3-(dimethylamino)propoxy]-1H-1,3-benzodiazol-2-yl]-3-fluorophenyl)-1H-1,3-benzodiazol-6-yl]oxy]propyl)dimethylamine], for which the “MBNL1 % splicing rescue at 10 μM” value in assay [2] is 96.4%. Besides, half-maximal inhibition in the assay with r(CUG)12-MBNL1 complex (IC50) required 14.2 µM. Besides, the percent splicing rescue at 3 mg/kg with HSALR strain 20b mice [3] (setting [4]) is 65.8%; in the assay on HSALR strain 20b mice [3] (setting [5]), 70.4%; with HSALR strain 20b mice [3] (setting [6]) it was 40.4%; in the assay on HSALR strain 20b mice [3] (setting [7]) it was 60%.

For the molecule `CN(C)CCOc1cccc(-c2nc3cc(-c4ccc5[nH]c(-c6cccc(OCCN(C)C)c6)nc5c4)ccc3[nH]2)c1` [Compound 354], in assay [2] (1 μM), the “MBNL1 % splicing rescue at 1 μM” value is 66.0%. Also, the “MBNL1 % splicing rescue at 10 μM” value in assay [2] was found to be 64.2%. For the same molecule, in the assay with r(CUG)12-MBNL1 complex, the concentration for half-maximal inhibition (IC50) – broadly, the concentration that gives 50% inhibition – was determined as 16.5 µM. The percent splicing rescue at 3 mg/kg is -14% in the assay with HSALR strain 20b mice [3] (setting [4]), -0.1% in the assay with HSALR strain 20b mice [3] (setting [5]), 0.1% in the assay on HSALR strain 20b mice [3] (setting [6]) and -0.1% in the assay on HSALR strain 20b mice [3] (setting [7]).
